Literature values, collected in US10875826B2, “Process for the manufacture of SNAC (salcaprozate sodium)” (Emisphere Technologies, Inc., priority 2006, dated 2020).
Structures can show the parent of a compound that is named as a salt.

## CCCCCN(C)CCC(O)(P(=O)(O)O)P(=O)(O)O [Ibandronate sodium, 3-(N-methyl-N-pentyl)-amino-1-hydroxypropane-1,1-diphosphonic acid, monosodium salt, monohydrate]
Organic solvents
  solubility in organic solvents: practically insoluble
water
  solubility in water: freely soluble
